Measurements: US5387512A, “Preparation of 3-[z-benzoxazol-2-yl)ethyl]-5-(1-hydroxyethyl)-6-methyl-2-(1H)-pyridinon e by biotransformation” (Merck & Co. Inc., priority 1992, dated 1995)

Experiments:
[1] = biological target: T1, recombinant HIV reverse transcriptase (HIV RTR) (Human immunodeficiency virus type 1 group M subtype B, UniProt P04585); assay: Reverse Transcriptase Assay; format: biochemical; settings: incorporation of [3H]dGMP into acid-precipitable cDNA; dGTP and poly r(C).oligo d(G)12-18 at Km; 37° C., 45 minutes; read-out: calculated IC50 value
T1 construct: recombinant HIV reverse transcriptase (HIV RTR)
Protocol: The assay measures the incorporation of tritiated deoxyguanosine monophosphate by recombinant HIV reverse transcriptase (HIV RTR) (or other RT) into acid-precipitable cDNA at the Km values of dGTP and poly r(C).oligo d(G)12-18.
Thirty uL of a reaction mixture containing equal volumes of: 500 mM Tris.HCl (pH 8.2), 300 mM MgCl2, 1200 mM KCl, 10 mM DTT, 400 μg/mL poly r(c).oligo d(G) [prepared by dissolving 1.5 mg (25 U) poly r(C).oligo d(G) in 1.5 ml sterile distilled H2 O and diluting to 400 μg/ml], 0.1 μCi/μl [^3 H] dGTP, 160 μM dGTP, was added to 10 μl sterile distilled H2 O, and 2.5 μl of potential inhibitor. An aliquot of 10 μL of 5 nM purified HIV RTR was added to initiate the reaction. The mixture was incubated at 37° C. for 45 minutes.
After incubation is complete, the tubes were cooled in ice for 5 minutes. Ice-cold 13% TCA containing 10 mM NaPPi (200 μl) are added and the mixture incubated on ice for 30 minutes. The precipitated cDNA is removed by filtration using presoaked glass filters [TCA, NaPPi ]. The precipitate is then washed with 1N HCl, 10 mM NaPPi.
The filter discs are then counted in a scintillation counter.
Under these conditions [dGTP] and poly r(C).oligo d(G)12-18 each are approximately equal to the appropriate Km value. Approximately 5-6,000 cpm of [^3 H] GMP are incorporated into acid-precipitable material. The RT reaction is concentration- and time-dependent.

[2] = Incubation With Rat Liver Slices; format: in vitro ADME
Protocol: Incubation of tritiated 3-[2-(benzoxazol-2-yl)ethyl]-5-ethyl-6-methyl-2-(1H)-pyridinone (parent compound/14.18 μmol) with rat liver slices (6.1 g) in 100 ml of Williams Medium E at pH. […] Ethyl acetate extraction gave a recovery of ~70% of the tritiated material, while ~25% (~9 HPLC peaks) remained in the aqueous residue.

For `Cc1[nH]c(=O)c(CCc2nc3ccccc3o2)cc1C(C)O` (stereo not drawn) [compound (I), 3-[2-(benzoxazol-2-yl)ethyl]-5-(1-hydroxyethyl)-6-methyl-2(1H)-pyridinone], the IC50 [1] was about 710 nM and the “radioactive HPLC peak, share of the total metabolites” value ([2]; ethyl acetate extract after four hours incubation of parent compound with rat liver slices) was ~ 37%.

`CCc1cc(CCc2nc3ccccc3o2)c(O)nc1C` [parent compound, 3-[2-(Benzoxazol-2-yl)ethyl]-5-ethyl-6-methyl-2-(1H)-pyridinone] gave a metabolised at 4 h ([2]; tritiated compound 14.18 μmol, rat liver slices 6.1 g, Williams Medium E, pH 7.4, 37° C., four hours, read-out: metabolism) of about 32%.
